Key:
[1] = system: Physcomitrella patens moss; assay: Bioluminescence of transgenic moss gametophytes soaked in hispidin; assay type: in vivo; conditions: hispidin 900 μg/ml in BCD medium
Text: Coding sequences of Neonothopanus nambi hispidin hydroxylase and luciferase were optimized for expression in Physcomitrella patens moss cells. Then, in silico there was created an expression cassette comprising promoter of rice aktI gene, human cytomegalovirus 5′-untranslated region coding hispidin hydroxylase sequence optimized for expression in plant cells (SEQ ID NO 103), terminating codon, Agrobacterium osc gene terminator sequence, rice ubiquitin promoter, coding sequence of Neonothopanus nambi luciferase (SEQ ID NO 112) optimized for expression in moss cells, Agrobacterium tumefaciens nos gene terminator.
The obtained sequence was synthesized in such a way, that all said fragments appeared to be operatively cross-linked to each other, and cloned by Gibson assembly technique [Gibson et al., Nat Methods, 2009, 6:343-5] into expression vector pLand #1 (Institut Jean-Pierre Bourgin, France), between DNA fragments coincident with locus of Physcomitrella patens moss genomic DNA between sequences of highly expressed moss genes Pp3c16_6440 V3.1 and Pp3c16_6460 V3.1. The vector pLand #1 also comprised a guide RNA (sgRNA) sequence for Cas9 nuclease, complementary to the region of the same DNA locus. […]
The obtained moss gametophytes were soaked in BCD medium comprising hispidin at concentration of 900 μg/ml, and analyzed by means of IVIS Spectrum In Vivo Imaging System (Perkin Elmer).

Danio rerio larvae = assay: Bioluminescence of transgenic Danio rerio larvae after hispidin injection; assay type: in vivo; conditions: hispidin solution intravenously injected
Text: Transgenic fish Danio redo, comprising gene of Neonothopanus nambi hispidin hydroxylase were created according to the technique described in [Hisano et al., Sci Rep., 2015, 5:8841]. The technique includes expression of guide RNA and Cas9 nuclease for making a breakpoint in the region homologous to the guide RNA sequence. For the purpose of development of transgenic animals there were ordered synthetic DNA fragments comprising guide RNA sequences from pX330 plasmid, Addgene #42230 and mRNA of Cas9 nuclease under control of bacteriophage polymerase T7 promoter. The obtained fragments were used for transcription in vitro by means of reagents from MAXIscript T7 kit (Life Technologies, USA), and synthesized RNA was purified by means of DNA isolation kit (Evrogen, Russia).
Coding sequence of Neonothopanus nambi hispidin hydroxylase floxed by 50-nucleotide sequences from krtt1c19e Danio rerio gene, described in [Hisano et al., Sci Rep., 2015, 5:8841], was obtained synthetically and cloned into pEGFP/C1 plasmid base comprising pUC origin and kanamycin resistance cassette.
Hispidin solution was intravenously injected into Danio rerio larvae for recording bioluminescent signal according to the technique described in [Cosentino et al., J Vis Exp. 2010; (42): 2079]. Bioluminescence was recorded by means of IVIS Spectrum In Vivo Imaging System (Perkin Elmer). […]

bioluminescence intensity exceeding the signal of control plants expressing luciferase only [1]: minimum by two orders of magnitude
Structure (SMILES): O=c1cc(O)cc(/C=C/c2ccc(O)c(O)c2)o1 [hispidin, (E)-6-(3,4-dihydroxystyryl)-4-hydroxy-2H-pyran-2-one]
bioluminescence intensity exceeding the signal from wild-type fish (Danio rerio larvae): minimum by two orders of magnitude
